Experimental data reported in publication PMC5547395 (EXCLI Journal, 2017).

Legend:
human CYP51 (hCYP51) = molecular target: T1, human CYP51 (hCYP51) (Homo sapiens, UniProt Q16850); test: Kd reported; presumably UV-visible difference spectroscopy (type II), human assay not described in Methods; type: binding
T1 construct: gene CYP51A1
T1 sequence (Q16850 1-509): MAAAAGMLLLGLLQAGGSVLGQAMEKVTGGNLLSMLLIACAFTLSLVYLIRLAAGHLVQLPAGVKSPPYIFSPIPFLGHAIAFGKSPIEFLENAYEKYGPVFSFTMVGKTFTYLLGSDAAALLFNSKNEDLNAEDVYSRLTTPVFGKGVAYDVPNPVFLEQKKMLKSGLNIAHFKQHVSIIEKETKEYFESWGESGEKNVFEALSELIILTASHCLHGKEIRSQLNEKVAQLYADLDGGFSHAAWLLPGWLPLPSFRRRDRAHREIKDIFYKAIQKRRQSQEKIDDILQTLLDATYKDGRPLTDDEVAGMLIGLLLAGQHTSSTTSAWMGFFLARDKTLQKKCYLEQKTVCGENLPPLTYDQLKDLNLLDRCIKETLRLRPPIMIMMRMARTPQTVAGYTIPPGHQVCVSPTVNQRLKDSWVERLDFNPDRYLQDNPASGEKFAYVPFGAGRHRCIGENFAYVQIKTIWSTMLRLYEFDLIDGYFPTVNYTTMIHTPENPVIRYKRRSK

[1] = molecular target: T2, Sterol 14α-demethylase (CYP51) from Candida albicans (CaCYP51) (Candida albicans, UniProt P10613); test: UV-visible difference spectroscopy (type II spectral response) with isolated CYP51; type: binding
T2 construct: gene ERG11
T2 sequence (P10613 whole entry): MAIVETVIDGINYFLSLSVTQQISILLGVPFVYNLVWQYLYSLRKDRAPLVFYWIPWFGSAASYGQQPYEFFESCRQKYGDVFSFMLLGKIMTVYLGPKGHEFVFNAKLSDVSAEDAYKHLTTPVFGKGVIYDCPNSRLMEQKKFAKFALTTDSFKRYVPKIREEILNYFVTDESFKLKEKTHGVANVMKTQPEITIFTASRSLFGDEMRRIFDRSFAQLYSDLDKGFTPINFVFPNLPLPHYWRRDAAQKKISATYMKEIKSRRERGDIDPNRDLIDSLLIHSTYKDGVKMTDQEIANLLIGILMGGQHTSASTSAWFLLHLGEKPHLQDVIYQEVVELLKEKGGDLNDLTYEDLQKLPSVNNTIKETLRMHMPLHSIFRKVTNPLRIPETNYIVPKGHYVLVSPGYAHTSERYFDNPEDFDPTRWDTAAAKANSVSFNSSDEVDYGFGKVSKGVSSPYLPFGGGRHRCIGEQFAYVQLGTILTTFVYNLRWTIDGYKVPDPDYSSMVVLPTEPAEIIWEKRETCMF

`CC(=O)N1CCN(c2ccc(OC[C@H]3CO[C@](Cn4ccnc4)(c4ccc(Cl)cc4Cl)O3)cc2)CC1` (racemic) [ketoconazole] was tested, and the Kd (human CYP51 (hCYP51)) was less than 50 nM and the Kd [1] was less than 50 nM.
